Assay [1] deals with T1, NLRP3 (Homo sapiens, UniProt Q96P20). The experiment in a line: streptavidin pull-down from HEK-293T lysates, Western blot. The class given is cell-based. Set-up: Flag-NLRP3; Flag-NLRP3 (NACHT: 220-536aa); Flag-NLRP3 (LRR: 742-991aa). A general note: In western blotting, separated proteins are transferred to a membrane and probed.
Target sequence in this assay (Q96P20 220-536): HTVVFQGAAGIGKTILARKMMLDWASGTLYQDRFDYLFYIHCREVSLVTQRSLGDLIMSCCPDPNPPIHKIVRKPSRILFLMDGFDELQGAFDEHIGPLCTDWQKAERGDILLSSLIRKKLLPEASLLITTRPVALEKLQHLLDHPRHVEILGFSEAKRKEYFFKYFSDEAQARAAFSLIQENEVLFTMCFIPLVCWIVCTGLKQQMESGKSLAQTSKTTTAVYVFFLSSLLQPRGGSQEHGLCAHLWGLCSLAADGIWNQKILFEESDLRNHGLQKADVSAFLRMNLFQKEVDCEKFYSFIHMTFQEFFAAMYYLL
The target of assay [2] is T1, NLRP3. Nature of the assay: SPR, NLRP3 immobilized on CM5 chip, […] binding model. Also on record: Recombinant human NLRP3 protein (CUSBIO, #CSB-EP822275HU3).
Target sequence in this assay (Q96P20 whole entry): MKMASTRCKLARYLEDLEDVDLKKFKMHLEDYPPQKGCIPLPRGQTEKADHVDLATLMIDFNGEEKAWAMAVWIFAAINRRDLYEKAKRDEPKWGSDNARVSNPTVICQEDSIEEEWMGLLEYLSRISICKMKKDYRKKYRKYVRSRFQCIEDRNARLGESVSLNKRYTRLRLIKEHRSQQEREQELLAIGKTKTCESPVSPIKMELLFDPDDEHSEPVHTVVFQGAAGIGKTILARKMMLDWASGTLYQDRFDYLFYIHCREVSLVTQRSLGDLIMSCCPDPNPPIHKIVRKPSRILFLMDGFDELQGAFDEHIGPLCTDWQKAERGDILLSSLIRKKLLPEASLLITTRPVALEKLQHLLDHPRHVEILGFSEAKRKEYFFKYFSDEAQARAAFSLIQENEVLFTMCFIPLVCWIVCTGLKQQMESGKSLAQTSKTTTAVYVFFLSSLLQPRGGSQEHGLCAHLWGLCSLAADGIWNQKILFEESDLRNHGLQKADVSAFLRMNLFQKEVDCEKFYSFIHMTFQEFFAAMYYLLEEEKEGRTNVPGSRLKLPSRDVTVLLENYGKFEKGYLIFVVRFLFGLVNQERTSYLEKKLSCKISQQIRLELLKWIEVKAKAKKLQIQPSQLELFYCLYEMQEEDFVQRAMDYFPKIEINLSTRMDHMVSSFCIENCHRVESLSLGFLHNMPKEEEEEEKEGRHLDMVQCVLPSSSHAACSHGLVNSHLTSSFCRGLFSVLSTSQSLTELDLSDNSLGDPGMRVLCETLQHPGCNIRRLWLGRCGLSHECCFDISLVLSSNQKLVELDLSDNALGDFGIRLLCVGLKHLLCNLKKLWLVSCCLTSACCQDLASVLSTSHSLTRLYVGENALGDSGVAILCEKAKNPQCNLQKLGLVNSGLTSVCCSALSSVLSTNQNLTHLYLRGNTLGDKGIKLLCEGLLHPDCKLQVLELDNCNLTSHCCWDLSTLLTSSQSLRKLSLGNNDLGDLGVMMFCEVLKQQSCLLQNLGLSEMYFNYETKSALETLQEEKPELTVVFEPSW

Results on three compounds are retold here after paper PMC11881452, “Inactivation of NLRP3 inflammasome by dephosphorylation at Serine 658 alleviates glial inflammation in the mouse model of Parkinson’s disease” (Molecular Neurodegeneration, 2025).

For `O=C1N[C@H]2[C@H](CS[C@H]2CCCCC(=O)Oc2c3occc3cc3ccc(=O)oc23)N1` [Biotinylated-Psoralen], the “streptavidin pull-down from HEK-293T lysates, Western blot” value at NLRP3 [1] was “Streptavidin pull-down assays showed that Bio-Pso specifically bound to the NACHT and LRR domains, but not the PYD domain”. As for `O=c1c2ccccc2nc2n1CCc1c-2[nH]c2ccccc12` [S2349], on NLRP3 [2], the equilibrium dissociation constant (Kd) (in general, the equilibrium constant for the complex coming apart) came to 146 µM. The same measure, in the same setting: the figure for `O=c1ccc2cc3ccoc3cc2o1` [S4737, Psoralen] is 209 µM.
